According to US9688691B2, “Macrocyclic quinazole derivatives and their use as MTKI” (Janssen Pharmaceutica NV, priority 2004, dated 2017):

Assays:
Assay type in all cases: biochemical
Bmx (h) = molecular target: T1, Bmx (h) (Homo sapiens, UniProt P51813); experiment: Kinase profiling, glass-fiber filter technology: Bmx; conditions: test concentration of 10^−6 M; read-out: Bmx inhibition score
T1 sequence (P51813 1-675): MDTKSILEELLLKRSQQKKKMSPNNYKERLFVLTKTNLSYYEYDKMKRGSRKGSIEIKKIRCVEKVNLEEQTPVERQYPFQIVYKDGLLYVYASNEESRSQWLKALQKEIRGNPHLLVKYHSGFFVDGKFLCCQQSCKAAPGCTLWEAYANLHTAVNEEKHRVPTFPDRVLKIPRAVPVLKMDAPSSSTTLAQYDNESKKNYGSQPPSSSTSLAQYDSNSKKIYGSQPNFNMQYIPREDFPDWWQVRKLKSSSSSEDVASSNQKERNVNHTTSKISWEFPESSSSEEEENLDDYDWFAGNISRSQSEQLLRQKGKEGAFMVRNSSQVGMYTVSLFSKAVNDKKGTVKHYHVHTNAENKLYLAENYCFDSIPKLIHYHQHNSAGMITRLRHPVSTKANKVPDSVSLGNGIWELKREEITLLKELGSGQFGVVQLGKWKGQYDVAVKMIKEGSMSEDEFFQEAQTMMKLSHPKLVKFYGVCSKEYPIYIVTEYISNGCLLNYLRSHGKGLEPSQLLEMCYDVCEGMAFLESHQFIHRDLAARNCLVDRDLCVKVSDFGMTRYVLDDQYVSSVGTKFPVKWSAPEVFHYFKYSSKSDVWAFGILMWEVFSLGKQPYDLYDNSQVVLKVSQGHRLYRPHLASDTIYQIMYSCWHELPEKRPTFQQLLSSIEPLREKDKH
Description: (§1) The in vitro inhibition of a panel of kinases was assessed using the glass-fiber filter technology as described by Davies, S. P. et al., Biochem J. (2000), 351; p. 95-105.
(§2) In the glass-fiber filter technology the activity of the kinase of interest is measured using an appropriate substrate that is incubated with the aforementioned kinase protein in the presence of (^33P) radiolabeled ATP. (^33P) Phosporylation of the substrate is subsequently measured as radioactivity bound on a glassfiber-filter.
(§3) All kinases are pre-diluted to a 10× working concentration prior to addition into the assay. The composition of the dilution buffer for each kinase is detailed below.
(§4) All substrates are dissolved and diluted to working stocks in de-ionised water.
(§5) In a final reaction volume of 25 μl, Bmx (h) (5-10 mU) is incubated with 8 mM MOPS pH 7.0, 0.2 mM EDTA, 0.1 mg/ml poly(Glu, Tyr) 4:1, 10 mM MgAcetate and [γ-33P-ATP] (specific activity approx. 500 cpm/pmol, concentration as required). The reaction is initiated by the addition of the MgATP mix. After incubation for 40 minutes at room temperature, the reaction is stopped by the addition of 5 μl of a 3% phosphoric acid solution. 10 μl of the reaction is then spotted onto a Filtermat A and washed three times for 5 minutes in 75 mM phosphoric acid and once in methanol prior to drying and scintillation counting.

Flt1 human = Flt1 human (Homo sapiens, UniProt P17948); experiment: Kinase profiling, glass-fiber filter technology: Flt1; conditions: test concentration of 10^−6 M; read-out: Flt1 inhibition score
Sequence of Flt1 human (P17948 27-1338): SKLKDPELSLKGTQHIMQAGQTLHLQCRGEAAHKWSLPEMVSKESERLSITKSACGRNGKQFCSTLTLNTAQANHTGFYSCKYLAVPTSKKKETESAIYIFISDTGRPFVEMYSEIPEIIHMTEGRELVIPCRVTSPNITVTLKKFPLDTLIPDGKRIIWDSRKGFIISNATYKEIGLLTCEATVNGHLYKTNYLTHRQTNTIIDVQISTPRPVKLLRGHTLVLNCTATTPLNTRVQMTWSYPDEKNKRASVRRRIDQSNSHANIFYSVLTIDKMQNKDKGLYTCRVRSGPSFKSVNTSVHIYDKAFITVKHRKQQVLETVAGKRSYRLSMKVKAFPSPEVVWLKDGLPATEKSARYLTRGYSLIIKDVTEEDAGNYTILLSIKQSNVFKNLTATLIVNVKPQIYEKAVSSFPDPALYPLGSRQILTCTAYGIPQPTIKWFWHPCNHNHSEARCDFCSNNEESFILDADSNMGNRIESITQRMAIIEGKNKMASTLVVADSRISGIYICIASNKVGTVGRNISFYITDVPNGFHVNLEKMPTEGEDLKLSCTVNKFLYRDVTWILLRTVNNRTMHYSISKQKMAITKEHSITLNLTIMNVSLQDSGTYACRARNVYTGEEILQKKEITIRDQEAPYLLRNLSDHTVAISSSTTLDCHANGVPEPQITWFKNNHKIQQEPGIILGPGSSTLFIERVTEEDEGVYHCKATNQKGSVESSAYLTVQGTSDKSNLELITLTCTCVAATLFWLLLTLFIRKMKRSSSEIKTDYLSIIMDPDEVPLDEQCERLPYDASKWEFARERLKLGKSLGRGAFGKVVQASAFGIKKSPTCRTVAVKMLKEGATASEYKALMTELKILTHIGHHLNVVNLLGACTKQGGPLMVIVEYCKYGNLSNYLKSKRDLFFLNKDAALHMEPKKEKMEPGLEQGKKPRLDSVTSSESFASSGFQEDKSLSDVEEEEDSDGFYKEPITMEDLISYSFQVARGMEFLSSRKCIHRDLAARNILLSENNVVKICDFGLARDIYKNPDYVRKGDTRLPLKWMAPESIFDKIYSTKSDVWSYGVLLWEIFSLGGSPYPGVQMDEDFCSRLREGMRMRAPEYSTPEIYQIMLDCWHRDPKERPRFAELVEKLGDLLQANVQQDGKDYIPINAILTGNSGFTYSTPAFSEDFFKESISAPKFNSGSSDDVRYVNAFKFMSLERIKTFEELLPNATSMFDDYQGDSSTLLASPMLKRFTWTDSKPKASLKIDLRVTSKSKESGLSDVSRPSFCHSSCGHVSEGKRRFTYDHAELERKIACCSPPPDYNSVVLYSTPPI
Description: as §1, §2, §3, §4
as §5, with “Flt1 human” for “Bmx (h)”, “250 μM KKKSPGEYVNIEFG,” for “0.1 mg/ml poly(Glu, Tyr) 4:1,”, “[γ-^33P-ATP]” for “[γ-33P-ATP]”, “P30 filtermat” for “Filtermat A”

cSRC (h) = cSRC (h) (Homo sapiens, UniProt P12931); experiment: Kinase profiling, glass-fiber filter technology: cSRC; conditions: test concentration of 10^−6 M; read-out: cSRC inhibition score
Sequence of cSRC (h) (P12931 whole entry): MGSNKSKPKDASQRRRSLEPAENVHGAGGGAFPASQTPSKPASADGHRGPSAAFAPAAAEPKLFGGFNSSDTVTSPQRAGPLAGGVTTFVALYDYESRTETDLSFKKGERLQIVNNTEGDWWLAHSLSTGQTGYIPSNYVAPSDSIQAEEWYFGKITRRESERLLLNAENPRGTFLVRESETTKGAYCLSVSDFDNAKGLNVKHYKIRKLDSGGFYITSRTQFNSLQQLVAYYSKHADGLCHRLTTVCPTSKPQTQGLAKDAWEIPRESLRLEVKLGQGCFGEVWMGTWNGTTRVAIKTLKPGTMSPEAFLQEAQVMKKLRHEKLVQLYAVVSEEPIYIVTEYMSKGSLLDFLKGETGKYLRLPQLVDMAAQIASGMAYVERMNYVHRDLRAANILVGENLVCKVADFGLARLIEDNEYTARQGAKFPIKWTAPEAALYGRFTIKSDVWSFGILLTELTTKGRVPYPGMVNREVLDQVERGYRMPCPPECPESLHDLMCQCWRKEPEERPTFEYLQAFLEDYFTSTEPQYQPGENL
Description: as §1, §2, §3, §4
In a final reaction volume of 25 μl, cSRC (h) (5-10 mU) is incubated with 8 mM MOPS pH 7.0, 0.2 mM EDTA, 250 μM KVEKIGEGTYGVVYK (Cdc2 peptide), 10 mM MgAcetate and [γ-^33P-ATP] (specific activity approx. 500 cpm/pmol, concentration as required). The reaction is initiated by the addition of the MgATP mix. After incubation for 40 minutes at room temperature, the reaction is stopped by the addition of 5 μl of a 3% phosphoric acid solution.
10 μl of the reaction is then spotted onto a P30 filtermat and washed three times for 5 minutes in 75 mM phosphoric acid and once in methanol prior to drying and scintillation counting.

ErbB4 (h) = ErbB4 (h) (Homo sapiens, UniProt Q15303); experiment: Kinase profiling, glass-fiber filter technology: ErbB4; conditions: test concentration of 10^−6 M; read-out: ErbB4 inhibition score
Sequence of ErbB4 (h) (Q15303 26-1308): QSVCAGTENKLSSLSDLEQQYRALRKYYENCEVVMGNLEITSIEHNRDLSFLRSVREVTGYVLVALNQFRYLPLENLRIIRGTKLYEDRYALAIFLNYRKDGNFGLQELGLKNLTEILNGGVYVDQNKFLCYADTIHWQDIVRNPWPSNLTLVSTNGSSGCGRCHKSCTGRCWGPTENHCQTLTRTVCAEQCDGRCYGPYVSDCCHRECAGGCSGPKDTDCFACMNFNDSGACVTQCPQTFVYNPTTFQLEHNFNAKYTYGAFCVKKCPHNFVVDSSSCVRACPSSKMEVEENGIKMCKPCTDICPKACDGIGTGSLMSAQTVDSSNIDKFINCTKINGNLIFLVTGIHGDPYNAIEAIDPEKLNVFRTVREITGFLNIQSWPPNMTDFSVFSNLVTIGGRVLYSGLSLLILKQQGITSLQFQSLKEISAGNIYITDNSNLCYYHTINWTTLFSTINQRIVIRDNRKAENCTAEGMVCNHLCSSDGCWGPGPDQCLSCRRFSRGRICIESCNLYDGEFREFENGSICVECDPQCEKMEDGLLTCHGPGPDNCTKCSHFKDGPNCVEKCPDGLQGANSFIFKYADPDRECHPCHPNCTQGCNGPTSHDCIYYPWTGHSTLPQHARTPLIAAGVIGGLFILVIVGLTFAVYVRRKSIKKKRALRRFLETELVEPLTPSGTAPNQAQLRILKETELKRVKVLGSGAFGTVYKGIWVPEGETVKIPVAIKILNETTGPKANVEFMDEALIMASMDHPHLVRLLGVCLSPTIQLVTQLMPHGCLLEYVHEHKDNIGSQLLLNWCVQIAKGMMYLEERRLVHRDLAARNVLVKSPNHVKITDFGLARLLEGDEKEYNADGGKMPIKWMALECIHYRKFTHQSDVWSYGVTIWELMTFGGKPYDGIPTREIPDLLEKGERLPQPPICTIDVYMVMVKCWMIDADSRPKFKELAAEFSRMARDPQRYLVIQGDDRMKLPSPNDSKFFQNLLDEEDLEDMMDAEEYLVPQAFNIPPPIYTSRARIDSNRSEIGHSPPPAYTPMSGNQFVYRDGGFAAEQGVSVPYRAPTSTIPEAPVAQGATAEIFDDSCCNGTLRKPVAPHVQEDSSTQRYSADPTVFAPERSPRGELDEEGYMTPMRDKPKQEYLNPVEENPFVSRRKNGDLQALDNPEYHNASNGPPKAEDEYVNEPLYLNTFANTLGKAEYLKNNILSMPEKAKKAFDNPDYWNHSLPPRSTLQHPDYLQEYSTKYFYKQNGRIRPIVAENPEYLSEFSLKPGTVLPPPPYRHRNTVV
Description: as §1, §2, §3, §4
as §5, with “ErbB4” for “Bmx”, “EDTA, 10 mM MnCl2,” for “EDTA,”

Yes (h) = Yes (h) (Homo sapiens, UniProt P07947); experiment: Kinase profiling, glass-fiber filter technology: Yes; conditions: test concentration of 10^−6 M; read-out: Yes inhibition score
Sequence of Yes (h) (P07947 whole entry): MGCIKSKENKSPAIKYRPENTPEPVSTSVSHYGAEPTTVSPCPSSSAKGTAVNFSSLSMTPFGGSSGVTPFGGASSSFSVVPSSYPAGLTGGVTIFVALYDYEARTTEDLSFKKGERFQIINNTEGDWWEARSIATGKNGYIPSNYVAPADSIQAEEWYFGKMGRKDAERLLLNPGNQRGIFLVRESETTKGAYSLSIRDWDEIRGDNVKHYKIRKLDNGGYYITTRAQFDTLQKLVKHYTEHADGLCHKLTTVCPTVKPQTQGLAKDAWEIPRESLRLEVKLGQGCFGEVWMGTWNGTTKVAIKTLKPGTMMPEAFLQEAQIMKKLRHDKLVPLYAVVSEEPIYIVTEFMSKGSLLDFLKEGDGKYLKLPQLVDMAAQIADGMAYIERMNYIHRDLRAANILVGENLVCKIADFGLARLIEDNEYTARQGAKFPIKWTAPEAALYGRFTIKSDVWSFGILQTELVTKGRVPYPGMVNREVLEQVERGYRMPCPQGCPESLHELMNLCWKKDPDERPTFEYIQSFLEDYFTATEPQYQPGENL
Description: as §1, §2, §3, §4
as §5, with “Yes” for “Bmx”, “[γ-^33P-ATP]” for “[γ-33P-ATP]”

Row | SMILES | inhibition at 1 µM (Bmx (h)) | inhibition at 1 µM (Flt1 human) | inhibition at 1 µM (cSRC (h)) | inhibition at 1 µM (ErbB4 (h)) | inhibition at 1 µM (Yes (h))
1 | CN1CCCCCOc2cc3c(ncnc3cc2OCCCNC(=O)OC(C)(C)C)Nc2cc(Br)ccc2C1 [Compound 11] | 10 to 30% | 30 to 60% | 60 to 80% | 10 to 30% | > 80%
2 | CN1CCCCCOc2cc3c(ncnc3cc2OC[C@@H](O)CN2CCS(=O)(=O)CC2)Nc2cc(Br)ccc2C1 [Compound 12] | 30 to 60% | 60 to 80% | > 80% | 60 to 80% | > 80%
3 | CN1CCCCCOc2cc3c(ncnc3cc2OCCCNCCS(C)(=O)=O)Nc2cc(Br)ccc2C1 [Compound 14] | 30 to 60% | > 80% | > 80% | > 80% | > 80%
4 | COc1cc2ncnc3c2cc1OCCCN(CCN1CCOCC1)C(=O)CNC(=O)Cc1ccc(Cl)cc1N3 [Compound 15] | – | 10 to 30% | 30 to 60% | 10 to 30% | 60 to 80%
5 | C#Cc1ccc2c(c1)Nc1ncnc3cc(OCCCNCCS(C)(=O)=O)c(cc13)OCCCCCN(C)C2 [Compound 20] | 60 to 80% | > 80% | > 80% | > 80% | > 80%
6 | COc1cc2ncnc3c2cc1OCCCN(CCCN1CCOCC1)C(=O)[C@H](CC(C)C)NC(=O)Cc1ccc(Br)cc1N3 [Int. 25] | – | 10 to 30% | 30 to 60% | 30 to 60% | > 80%
7 | COCCOCCOc1cc2ncnc3c2cc1OCCCCCN(C)Cc1ccc(Br)cc1N3 [Int. 43] | – | 60 to 80% | > 80% | 10 to 30% | > 80%

Next, values leading:

Row | inhibition at 1 µM (Bmx (h)) | inhibition at 1 µM (Flt1 human) | inhibition at 1 µM (cSRC (h)) | inhibition at 1 µM (ErbB4 (h)) | inhibition at 1 µM (Yes (h)) | SMILES
8 | 30 to 60% | 30 to 60% | > 80% | 30 to 60% | > 80% | CC(=O)OCCN(C)CCCOc1cc2ncnc3c2cc1OCCCNC(=O)[C@H](C)N(C)Cc1cc(F)c(Cl)cc1N3 [Compound 2]
9 | 30 to 60% | 30 to 60% | > 80% | 30 to 60% | > 80% | CC(=O)NCCNCCCOc1cc2ncnc3c2cc1OCCCNC(=O)[C@H](C)N(C)Cc1cc(F)c(Cl)cc1N3 [Compound 4]
10 | 30 to 60% | 30 to 60% | > 80% | 10 to 30% | > 80% | CC(=O)N(CCO)CCCOc1cc2ncnc3c2cc1OCCCNC(=O)[C@H](C)N(C)Cc1cc(F)c(Cl)cc1N3 [Compound 5]
11 | 30 to 60% | – | > 80% | 60 to 80% | > 80% | CC(=O)NCCN1CCN(CCCOc2cc3ncnc4c3cc2OCCCNC(=O)[C@H](C)N(C)Cc2cc(F)c(Cl)cc2N4)CC1 [Compound 6]
12 | 60 to 80% | > 80% | > 80% | > 80% | > 80% | CC(=O)NCCNCCCOc1cc2ncnc3c2cc1OCCCCCN(C)Cc1ccc(Br)cc1N3 [Compound 13]
13 | 60 to 80% | – | > 80% | > 80% | > 80% | CN1CCCCCOc2cc3c(ncnc3cc2OC[C@H](O)CNCCOCCO)Nc2cc(Cl)c(F)cc2C1 [Compound 17]
14 | 30 to 60% | – | > 80% | > 80% | > 80% | CN1CCCCCOc2cc3c(ncnc3cc2OCCCNCCS(C)(=O)=O)Nc2cc(Cl)c(F)cc2C1 [Compound 18]
15 | 60 to 80% | > 80% | > 80% | 60 to 80% | > 80% | CN1CCCCCOc2cc3c(ncnc3cc2OCCCN2CCS(=O)(=O)CC2)Nc2cc(Cl)c(F)cc2C1 [Compound 19]
16 | 30 to 60% | 60 to 80% | > 80% | 10 to 30% | – | C[C@H]1C(=O)NCCCOc2cc3c(ncnc3cc2OCCCN2CCN(C(=O)OC(C)(C)C)CC2)Nc2cc(Cl)c(F)cc2CN1C [Int. 16]
